pIC50: −log10 of the molar value. Like-named read-outs stand apart in the source and are kept apart here.
Biological target: T1, human LPA1 (Homo sapiens, UniProt Q92633)
T1 construct: expressed in transfected cells; host or cells: CHO-K1
Experiment: In vitro LPA1 calcium flux antagonist assay - Bioduro protocol
Format: cell-based
Conditions: CHO-K1 cells overexpressing human LPA1 and G15a, LPA challenge at EC80
Procedure, shortened: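 CHO-K1 cells overexpressing human LPA1 and G15a, serum-starved 4 h, loaded with Fluo-8 AM plus 2.5 mM probenecid in HBSS/20 mM Hepes for 30 min at 37 °C. Compound preincubated 30 min, then LPA challenge at EC80; FLIPR calcium signal, % inhibition relative to DMSO and LPA controls.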

[1] = calcium mobilization on FLIPR Tetra, read-out: IC50
[2] = Table B3, read-out: Activity (IC50 class)

T1 sequence (Q92633 whole entry): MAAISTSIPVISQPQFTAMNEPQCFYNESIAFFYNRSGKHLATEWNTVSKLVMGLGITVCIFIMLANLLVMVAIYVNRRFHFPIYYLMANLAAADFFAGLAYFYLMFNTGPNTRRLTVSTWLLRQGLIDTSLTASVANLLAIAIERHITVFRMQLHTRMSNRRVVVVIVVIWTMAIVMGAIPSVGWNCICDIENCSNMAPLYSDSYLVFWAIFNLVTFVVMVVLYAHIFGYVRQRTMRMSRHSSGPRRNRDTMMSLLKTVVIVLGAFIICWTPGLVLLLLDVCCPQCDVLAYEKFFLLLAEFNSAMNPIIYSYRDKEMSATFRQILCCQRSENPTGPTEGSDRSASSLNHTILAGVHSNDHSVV

Row | SMILES | pIC50 [1] | pIC50 [2]
1 | Cc1ccc(-c2ccc(NC3(C(=O)O)CCOCC3)cc2COC2CC2)c(F)c1OC1CC1 [Compound 392] | 8.03 | > 7.00
2 | CCCc1nccc(-c2ccc(NC3(C(=O)O)CCOCC3)cc2COC2CC2)c1F [Compound 393] | < 5.00 | < 6.00
3 | CCOc1c(C)ccc(-c2ccc(NC3(C(=O)O)CCOCC3)cc2COCC(C)C)c1C [Compound 394] | 7.01 | > 7.00
4 | CCOc1cc(OC)cc(-c2ccc(NC3(C(=O)O)CCOCC3)cc2COCC(C)C)c1F [Compound 395] | 8.10 | > 7.00
5 | CCOc1c(C)c(OC)cc(-c2ccc(NC3(C(=O)O)CCOCC3)cc2COCC(C)C)c1F [Compound 396] | 7.56 | > 7.00
6 | COc1cc(-c2ccc(NC3(C(=O)O)CCOCC3)cc2COCC(C)C)c(C)c(OC)c1C [Compound 397] | 7.14 | > 7.00
7 | COc1cc(OC)c(Cl)c(-c2ccc(NC3(C(=O)O)CCOCC3)cc2COCC(C)C)c1 [Compound 398] | 6.98 | 6.00 to 7.00
8 | CCCCOCc1cc(NC2(C(=O)O)CCOCC2)ccc1-c1ccc(C)c(OCC)c1C [Compound 399] | 8.19 | > 7.00
9 | CCCCOCc1cc(NC2(C(=O)O)CCOCC2)ccc1-c1cc(OC)c(C)c(OCC)c1F [Compound 400] | 8.27 | > 7.00
10 | CCCCOCc1cc(NC2(C(=O)O)CCOCC2)ccc1-c1cc(OC)c(C)c(OC)c1C [Compound 401] | 8.24 | > 7.00
11 | CCCCOCc1cc(NC2(C(=O)O)CCOCC2)ccc1-c1cc(OC)cc(OC)c1Cl [Compound 402] | 8.12 | > 7.00
12 | CCOc1cncc(-c2ccc(NC3(C(=O)O)CCOCC3)cc2COC2CC2)c1C(F)F [Compound 403] | 7.64 | > 7.00
13 | CCCCOCc1cc(NC2(C(=O)O)CCOCC2)ccc1-c1cncc(OCC)c1C(F)F [Compound 404] | 7.89 | > 7.00
14 | CCOc1cncc(-c2ccc(NC3(C(=O)O)CCC(F)(F)CC3)cc2COC2CC2)c1C(F)F [Compound 406] | 7.70 | > 7.00
15 | CCOc1cncc(-c2ccc(NC3(C(=O)O)CCOCC3)cc2COC2CC2)c1C [Compound 407] | 7.02 | > 7.00
16 | CCOc1c(C)ncc(-c2ccc(NC3(C(=O)O)CCOCC3)cc2COC2CC2)c1C [Compound 408] | 6.82 | 6.00 to 7.00
17 | CCOc1cncc(-c2ccc(NC3(C(=O)O)CCOCC3)c(F)c2COC2CC2)c1C(F)F [Compound 409] | 6.64 | 6.00 to 7.00
18 | CCOc1cncc(-c2c(C)cc(NC3(C(=O)O)CCOCC3)cc2COC2CC2)c1C(F)F [Compound 410] | 6.75 | 6.00 to 7.00
19 | CCOc1cncc(-c2ccc(NC3(C(=O)O)CCOCC3)cc2COC2Cc3ccccc3C2)c1C [Compound 411, 4-({3-[(2,3-dihydro-1H-inden-2-yloxy)methyl]-4-(5-ethoxy-4-methylpyridin-3-yl)phenyl}amino)oxane-4-carboxylic acid] | 8.28 | > 7.00
20 | CCOc1cncc(-c2ccc(C3(C(=O)O)CC3)cc2COC2CCCC2)c1C(F)F [Compound 412] | 6.27 | 6.00 to 7.00
21 | CCOc1cncc(-c2ccc(NC3(C(=O)O)CCOCC3)cc2COCCC(C)C)c1C(F)F [Compound 413, 4-({4-[4-(difluoromethyl)-5-ethoxypyridin-3-yl]-3-[(3-methylbutoxy)methyl]phenyl}amino) oxane-4-carboxylic acid] | 8.24 | > 7.00
22 | CCOc1c(C)ncc(-c2ccc(NC3(C(=O)O)CC(F)(F)C3)cc2COC2CC2)c1C [Compound 414] | 6.95 | 6.00 to 7.00
23 | CCOc1cncc(-c2ccc(OC3(C(=O)O)CCOCC3)cc2COC2CC2)c1C(F)F [Compound 415] | 7.18 | > 7.00
24 | CCOc1cncc(-c2ccc(NC3(C(=O)O)CCOCC3)cc2COC2CC3CC3C2)c1C (centres unmarked) [Compound 416, 4-{[3-({bicyclo[3.1.0]hexan-3-yloxy}methyl)-4-(5-ethoxy-4-methylpyridin-3-yl)phenyl]amino}oxane-4-carboxylic acid] | 8.06 | > 7.00
25 | CCOc1cncc(-c2ccc(NC3(C(=O)O)CCCC3)cc2COC2CC2)c1C [Compound 417] | 7.45 | > 7.00

Source: patent publication US11884627B2, “Compounds and compositions for treating conditions associated with LPA receptor activity” (Lhotse Bio, Inc., priority 2022, dated 2024)
